The values below come from patent US20260090980A1, “COSMETIC COMPOSITIONS AND METHODS OF USING THE SAME” (MARY KAY INC., priority 2022, published 2026).

This test deals with lipolysis. Put plainly: In-vitro activity: lipolysis. The format is cell-based. As to conditions: 3 %.

Regarding `Cn1c(=O)c2c(ncn2C)n(C)c1=O` [Caffeine], the “Activity: lipolysis” value was “Lipolysis”.
